Reference: ChEMBL document CHEMBL4346723, “Targeting tropomyosin receptor kinase for cancer therapy” (Eur J Med Chem, 2019)

What was measured:
[1] = target: T1, High affinity nerve growth factor receptor (Homo sapiens, UniProt P04629); experiment: Inhibition of recombinant full length human TRKA expressed in U2OS cells using Poly(Glu:Tyr) as substrate after 30 mins by scintillation counting assay
[2] = target: T2, BDNF/NT-3 growth factors receptor (Homo sapiens, UniProt Q16620); experiment: Inhibition of TRKB (unknown origin)
T2 sequence (Q16620 whole entry): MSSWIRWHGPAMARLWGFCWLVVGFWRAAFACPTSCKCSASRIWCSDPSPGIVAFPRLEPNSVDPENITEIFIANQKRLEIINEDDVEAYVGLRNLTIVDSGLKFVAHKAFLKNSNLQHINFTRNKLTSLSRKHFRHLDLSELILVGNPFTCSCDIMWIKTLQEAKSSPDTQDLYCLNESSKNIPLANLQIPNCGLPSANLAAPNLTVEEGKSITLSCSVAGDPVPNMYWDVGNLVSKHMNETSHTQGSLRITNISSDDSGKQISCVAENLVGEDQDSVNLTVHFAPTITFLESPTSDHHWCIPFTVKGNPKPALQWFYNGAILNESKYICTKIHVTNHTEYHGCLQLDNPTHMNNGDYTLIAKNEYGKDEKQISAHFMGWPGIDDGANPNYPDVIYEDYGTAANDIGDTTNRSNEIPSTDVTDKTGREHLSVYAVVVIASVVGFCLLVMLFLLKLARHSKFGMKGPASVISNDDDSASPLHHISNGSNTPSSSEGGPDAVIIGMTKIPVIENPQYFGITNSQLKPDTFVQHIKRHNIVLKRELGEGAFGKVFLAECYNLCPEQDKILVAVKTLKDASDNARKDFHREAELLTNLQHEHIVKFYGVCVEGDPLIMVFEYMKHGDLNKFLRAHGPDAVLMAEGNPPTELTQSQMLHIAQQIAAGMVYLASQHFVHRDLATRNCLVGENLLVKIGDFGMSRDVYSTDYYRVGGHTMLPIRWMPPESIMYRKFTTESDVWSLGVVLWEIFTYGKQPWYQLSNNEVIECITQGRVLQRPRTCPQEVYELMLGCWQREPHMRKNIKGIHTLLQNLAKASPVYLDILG

[3] = target: Tyrosine-protein kinase BTK (Homo sapiens, UniProt Q06187); experiment: Inhibition of BTK (unknown origin)
Chain of Tyrosine-protein kinase BTK (Q06187 whole entry): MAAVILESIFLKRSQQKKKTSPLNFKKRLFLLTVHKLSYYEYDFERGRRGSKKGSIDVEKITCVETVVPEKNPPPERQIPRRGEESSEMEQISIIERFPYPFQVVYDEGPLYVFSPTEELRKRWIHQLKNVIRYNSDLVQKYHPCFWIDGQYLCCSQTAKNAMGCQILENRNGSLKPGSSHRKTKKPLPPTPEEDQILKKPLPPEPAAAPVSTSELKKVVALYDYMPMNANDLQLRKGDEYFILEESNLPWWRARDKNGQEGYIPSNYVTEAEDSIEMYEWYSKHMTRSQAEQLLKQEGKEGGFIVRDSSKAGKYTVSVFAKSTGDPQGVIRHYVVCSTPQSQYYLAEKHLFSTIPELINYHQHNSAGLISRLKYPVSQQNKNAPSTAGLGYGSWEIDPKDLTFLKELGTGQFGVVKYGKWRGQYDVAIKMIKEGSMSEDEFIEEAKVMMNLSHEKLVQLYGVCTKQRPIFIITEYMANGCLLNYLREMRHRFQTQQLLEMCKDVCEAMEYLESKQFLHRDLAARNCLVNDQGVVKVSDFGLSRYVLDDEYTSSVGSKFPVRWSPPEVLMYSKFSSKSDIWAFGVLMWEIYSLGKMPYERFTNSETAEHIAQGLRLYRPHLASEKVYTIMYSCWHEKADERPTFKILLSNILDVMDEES

[4] = target: T1, High affinity nerve growth factor receptor; experiment: Inhibition of recombinant N- terminal GST-tagged human NTRK1 expressed in baculovirus infected Sf9 cells using Poly(Glu:Tyr) as substrate after 45 mins
[5] = target: T1, High affinity nerve growth factor receptor; experiment: Inhibition TRKA (unknown origin)
NTRK1/NTRK2 = NTRK1/NTRK2 (Homo sapiens, UniProt P04629+Q16620); experiment: Inhibition of TRKA/TRKB (unknown origin); type: protein assay
[6] = Inhibition of TRK (unknown origin); parameters: species or system Homo sapiens
[7] = target: T1, High affinity nerve growth factor receptor; experiment: Inhibition of human TRKA expressed in human AD293 cells assessed as reduction in TrkA phosphorylation at Tyr490 residues preincubated for 20 mins followed by NGF-stimulation measure after 5 mins by ELISA; type: cell-based
[8] = target: T3, Tyrosine-protein kinase JAK2 (Homo sapiens, UniProt O60674); experiment: Inhibition of recombinant C-terminal His6-tagged human JAK2 (808 to end residues) expressed in baculovirus infected SF21 insect cells using Tyr 1054/1055 biotinylated peptide as substrate after 60 mins by Alphascreen assay
T3 sequence (O60674 whole entry): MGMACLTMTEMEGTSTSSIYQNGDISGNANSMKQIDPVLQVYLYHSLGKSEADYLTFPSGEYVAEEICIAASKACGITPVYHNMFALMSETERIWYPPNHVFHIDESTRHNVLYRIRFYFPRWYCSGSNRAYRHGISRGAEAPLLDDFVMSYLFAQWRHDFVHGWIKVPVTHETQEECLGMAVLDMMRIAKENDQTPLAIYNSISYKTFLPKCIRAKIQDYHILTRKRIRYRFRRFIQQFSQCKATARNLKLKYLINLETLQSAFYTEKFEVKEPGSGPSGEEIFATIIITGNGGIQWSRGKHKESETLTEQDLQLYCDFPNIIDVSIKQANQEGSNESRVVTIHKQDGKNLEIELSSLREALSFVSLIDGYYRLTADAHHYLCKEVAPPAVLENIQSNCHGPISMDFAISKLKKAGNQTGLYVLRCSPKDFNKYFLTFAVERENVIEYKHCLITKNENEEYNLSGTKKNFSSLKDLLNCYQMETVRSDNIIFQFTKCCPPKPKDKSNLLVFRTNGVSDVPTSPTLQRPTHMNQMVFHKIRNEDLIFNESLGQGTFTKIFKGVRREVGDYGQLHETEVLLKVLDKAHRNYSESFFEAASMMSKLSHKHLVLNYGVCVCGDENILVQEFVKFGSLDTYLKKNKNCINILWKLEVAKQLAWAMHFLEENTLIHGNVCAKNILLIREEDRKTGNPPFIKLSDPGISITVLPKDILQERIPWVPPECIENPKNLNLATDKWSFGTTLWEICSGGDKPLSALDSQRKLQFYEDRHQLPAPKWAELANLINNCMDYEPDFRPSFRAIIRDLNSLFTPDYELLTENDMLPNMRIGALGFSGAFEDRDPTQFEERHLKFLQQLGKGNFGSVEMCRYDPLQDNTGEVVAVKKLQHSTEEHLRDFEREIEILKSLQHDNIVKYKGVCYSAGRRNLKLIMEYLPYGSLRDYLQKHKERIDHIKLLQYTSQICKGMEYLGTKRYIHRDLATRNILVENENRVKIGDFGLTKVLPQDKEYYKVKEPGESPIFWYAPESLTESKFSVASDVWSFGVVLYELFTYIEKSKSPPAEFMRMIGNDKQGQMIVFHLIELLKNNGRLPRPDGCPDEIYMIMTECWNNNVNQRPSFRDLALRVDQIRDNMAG

[9] = target: T1, High affinity nerve growth factor receptor; experiment: Inhibition of TRKA (unknown origin) using poly GT as substrate preincubated for 30 mins followed by substrate addition measured after 30 mins by TR-FRET Assay
[10] = target: T1, High affinity nerve growth factor receptor; experiment: Inhibition of NTRK1 in human KM12 cells; type: cell-based
[11] = target: T1, High affinity nerve growth factor receptor; experiment: Inhibition of recombinant His-tagged human TRKA cytoplasmic domain (441 to 796 residues) expressed in baculovirus expression system using biotin labelled TK peptide preincubated for 20 mins followed by substrate addition by HTRF assay
[12] = target: T2, BDNF/NT-3 growth factors receptor; experiment: Inhibition of N- terminal GST-tagged human TRKB cytoplasmic domain (456 to 822 end residues) expressed in baculovirus expression system using TK peptide as substrate after 60 mins by HTRF assay
[13] = target: NT-3 growth factor receptor (Homo sapiens, UniProt Q16288); experiment: Inhibition of N- terminal GST-tagged human TRKC catalytic domain (456 to 825 end residues) expressed in baculovirus expression system using TK peptide as substrate after 60 mins by HTRF assay
Chain of NT-3 growth factor receptor (Q16288 whole entry, the tested form may be a part): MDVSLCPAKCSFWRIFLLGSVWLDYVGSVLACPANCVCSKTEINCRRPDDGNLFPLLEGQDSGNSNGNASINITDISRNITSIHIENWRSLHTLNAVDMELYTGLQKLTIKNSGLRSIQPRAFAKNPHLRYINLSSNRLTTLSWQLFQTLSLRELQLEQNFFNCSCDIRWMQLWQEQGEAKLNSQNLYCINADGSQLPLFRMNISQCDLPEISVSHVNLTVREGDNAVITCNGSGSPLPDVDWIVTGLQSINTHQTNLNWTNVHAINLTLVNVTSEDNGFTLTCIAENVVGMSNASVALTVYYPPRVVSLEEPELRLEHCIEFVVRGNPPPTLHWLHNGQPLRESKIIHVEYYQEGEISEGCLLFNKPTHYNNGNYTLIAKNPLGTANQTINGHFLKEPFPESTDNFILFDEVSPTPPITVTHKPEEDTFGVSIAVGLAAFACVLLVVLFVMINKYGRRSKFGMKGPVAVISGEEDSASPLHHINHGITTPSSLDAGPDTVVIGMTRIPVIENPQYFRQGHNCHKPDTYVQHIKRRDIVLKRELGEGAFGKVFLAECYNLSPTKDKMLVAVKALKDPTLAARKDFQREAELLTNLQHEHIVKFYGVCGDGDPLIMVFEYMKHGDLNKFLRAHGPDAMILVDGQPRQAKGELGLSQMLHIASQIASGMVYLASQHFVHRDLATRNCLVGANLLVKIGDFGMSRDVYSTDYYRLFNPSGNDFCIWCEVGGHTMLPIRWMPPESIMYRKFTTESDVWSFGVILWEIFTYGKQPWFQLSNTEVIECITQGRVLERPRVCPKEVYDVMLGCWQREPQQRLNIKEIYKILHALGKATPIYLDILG

[14] = target: T3, Tyrosine-protein kinase JAK2; experiment: Inhibition of N-terminal His-tagged human JAK2 catalytic domain (826 to 1132 end residues) expressed in baculovirus expression system using TK peptide as substrate after 120 mins by HTRF assay
[15] = target: T1, High affinity nerve growth factor receptor; experiment: Inhibition of N- terminal GST-tagged human TRKA cytoplasmic domain (436 to 790 end residues) using TK peptide as substrate after 60 mins by HTRF assay
SU-DHL-1 = experiment: cells; conditions: Homo sapiens, SU-DHL-1, 48 h
Description: Antiproliferative activity against human SU-DHL1 cells incubated for 48 hrs by sulforhodamine B assay

KARPAS-299 = experiment: cells; conditions: Homo sapiens, KARPAS-299, 48 h
Description: Antiproliferative activity against human KARPAS299 cells incubated for 48 hrs by sulforhodamine B assay

cells [16] = conditions: Homo sapiens, SR-786, 48 h
Description: Antiproliferative activity against human SR786 cells incubated for 48 hrs by sulforhodamine B assay

MV4-11 = experiment: cells; conditions: Homo sapiens, MV4-11, 48 h
Description: Antiproliferative activity against human MV4-11 cells incubated for 48 hrs by sulforhodamine B assay

cells [17] = conditions: Homo sapiens, SUP-M2, 48 h
Description: Antiproliferative activity against human SUP-M2 cells incubated for 48 hrs by sulforhodamine B assay

[18] = Volume of distribution at steady state in healthy volunteer at 100 mg, twice daily; conditions: human, in vivo, read-out: Vdss
KM12 = experiment: cells; conditions: Homo sapiens
Description: Growth inhibition of human KM12 cells

[19] = Tmax in cancer patient at 100 mg, twice daily; type: ADME; conditions: human, in vivo
[20] = Apparent oral clearance in healthy volunteer at 100 mg, twice daily; conditions: human, in vivo
[21] = Half life in healthy volunteer at 100 mg, twice daily; conditions: human, in vivo
[22] = Oral bioavailability in healthy volunteer at 100 mg, twice daily; conditions: human, in vivo
[23] = Cmax in cancer patient at 100 mg, twice daily; type: ADME; parameters: dose 100 mg; conditions: human, in vivo
[24] = AUC (0 to 24 hrs) in cancer patient at 100 mg, twice daily; type: ADME; parameters: dose 100 mg, time < 24 hr; conditions: human, in vivo

T1 sequence (P04629 whole entry): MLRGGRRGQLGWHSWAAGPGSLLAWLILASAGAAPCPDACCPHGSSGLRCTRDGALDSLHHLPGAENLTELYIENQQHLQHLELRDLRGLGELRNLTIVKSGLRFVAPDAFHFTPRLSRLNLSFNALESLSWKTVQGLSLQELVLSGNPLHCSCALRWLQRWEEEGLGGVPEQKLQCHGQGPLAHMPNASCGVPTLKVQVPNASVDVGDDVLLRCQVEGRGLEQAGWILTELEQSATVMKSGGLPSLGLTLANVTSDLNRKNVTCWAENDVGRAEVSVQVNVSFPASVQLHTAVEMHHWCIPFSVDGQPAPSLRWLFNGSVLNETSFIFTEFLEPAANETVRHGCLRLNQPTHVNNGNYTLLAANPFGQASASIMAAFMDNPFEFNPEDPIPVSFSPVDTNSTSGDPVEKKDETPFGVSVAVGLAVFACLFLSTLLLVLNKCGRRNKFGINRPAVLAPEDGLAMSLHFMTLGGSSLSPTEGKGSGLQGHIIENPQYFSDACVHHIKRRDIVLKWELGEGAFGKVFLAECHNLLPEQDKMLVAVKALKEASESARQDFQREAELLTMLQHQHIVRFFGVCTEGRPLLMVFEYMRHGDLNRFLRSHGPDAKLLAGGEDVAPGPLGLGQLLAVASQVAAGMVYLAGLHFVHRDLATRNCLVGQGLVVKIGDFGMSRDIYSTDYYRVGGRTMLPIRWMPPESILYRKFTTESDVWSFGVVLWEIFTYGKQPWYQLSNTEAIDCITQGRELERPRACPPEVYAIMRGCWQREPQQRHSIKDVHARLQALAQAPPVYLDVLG

## Cn1ccc(-c2cc(C(=O)Nc3c(-c4ccccc4)nc4ccc(CO)cn34)ccc2C(F)(F)F)n1
[1]
  IC50: 1 nM

## CC(C)N1Cc2cc(c(F)cc2F)OCCCNC(=O)c2cnn3ccc1nc23
[2]
  IC50: 5000 nM
[3]
  IC50: 9.67 nM
[1]
  IC50: 0.2 nM

## CC(C)c1nnc(-c2cnn3ccc(N4CCCC4c4cc(F)ccc4F)nc23)o1 (centres undefined)
[4]
  IC50: < 10 nM

## CC(C)c1cc(C(=O)c2cccc(NC(=O)Nc3ccc(Cl)cc3Cl)c2)c2c(N)ncnn12
[5]
  IC50: < 1 nM
NTRK1/NTRK2
  IC50: < 1 nM

## O=C(Nc1c(-c2ccccc2)nc2sccn12)NC1c2ccccc2-c2ccccc21
[1]
  IC50: 30 to 35 nM

## CC(C)(O)c1ccc2nc(-c3ccccc3)c(NC(=O)c3cc(-c4ncccn4)c(C(F)(F)F)cc3F)n2c1
[1]
  IC50: 0.89 nM

## COc1ccc2nc(N[C@@H](CO)c3ccc(F)cc3)nc(Nc3cc(C4CC4)[nH]n3)c2c1
[6]
  IC50: 87 nM

## COCCN1C[C@@H](NC(=O)Nc2cc3ccccc3nc2-c2ccccc2)[C@H](c2ccccc2)C1
[7]
  IC50: < 100 nM

## C[C@H](Nc1nccc(Nc2cc(C3CC3)[nH]n2)n1)c1ccc(F)cc1
[6]
  IC50: 67 nM

## Cc1cc(Nc2cnc(C#N)c(N[C@@H](C)c3ccc(F)cc3)n2)n[nH]1
[8]
  IC50: 33 nM

## Nc1cc(NS(=O)(=O)c2cccc(C(F)(F)F)c2)cc(-c2ccc3c(-c4ccncc4)c[nH]c3n2)c1
[6]
  IC50: > 1000 nM

## CC(C)N1Cc2cc(cc(F)c2Cl)O[C@@H](C)CNC(=O)c2cnn3ccc1nc23
[2]
  IC50: 1500 nM
[3]
  IC50: 0.536 nM
[1]
  IC50: 0.2 nM

## O=C(c1cnc2ccc(N3CCCC3c3cc(F)ccc3F)cn12)N1CC[C@H](O)C1 (some centres undefined)
[9]
  IC50: < 50 nM

## CN(C)CCCc1cc(C(=O)c2cccc(NC(=O)Nc3ccc(Cl)cc3Cl)c2)c2c(N)ncnn12
NTRK1/NTRK2
  IC50: < 1 nM

## COc1ncc(F)cc1[C@H]1C[C@H](F)CN1c1ccn2ncc(C#N)c2n1
[10]
  IC50: < 10 nM

## C[C@H](Nc1nc(Nc2cc(C3CC3)[nH]n2)c(F)cc1CNC(=O)C1CCC(=O)N1)c1ccc(F)cc1 (some centres undefined)
[6]
  IC50: 611 nM

## Nc1cc(CNC(=O)c2cc(NC(=O)c3cc(-c4cccc(F)n4)c(Cl)cc3Cl)n(-c3ccccc3)n2)ccn1
[11]
  IC50: 1.02 nM

## N#Cc1cc(F)cc([C@H]2C[C@H](F)CN2c2ccn3ncc(C#N)c3n2)c1
[10]
  IC50: < 10 nM

## CC(C)(C)c1nnc(-c2cnn3ccc(N4CCCC4c4cc(F)ccc4F)nc23)o1 (centres undefined)
[4]
  IC50: < 10 nM

## C[C@H](Nc1ccc([N+](=O)[O-])c(Nc2cc(C3CC3)[nH]n2)n1)c1ccc(F)cc1
[6]
  IC50: 63 nM

## COCCN1C[C@@H](NC(=O)Nc2cc3cc(OC)c(OC)cc3nc2-c2ccccc2)[C@H](c2ccccc2)C1
[7]
  IC50: < 100 nM

## O=C(Nc1cccnc1-c1ccccc1)NC1c2ccccc2-c2ccccc21
[1]
  IC50: 27 to 30 nM

## NC(=O)c1c(N)nn2cc(N3CCC[C@@H]3c3cc(F)ccc3F)cnc12
[12]
  IC50: < 10 nM
[13]
  IC50: < 10 nM
[14]
  IC50: > 2000 nM
[15]
  IC50: < 1 nM

## CN1CCN(c2ccc(C(=O)Nc3n[nH]c4ccc(Cc5cc(F)cc(F)c5)cc34)c(NC3CCOCC3)c2)CC1 [ENTRECTINIB]
SU-DHL-1
  IC50: 20 nM
KARPAS-299
  IC50: 31 nM
Cells [16]
  IC50: 81 nM
MV4-11
  IC50: 81 nM
Cells [17]
  IC50: 41 nM

## O=C(Nc1c(-c2ccccc2)nc2ccccn12)NC1c2ccccc2-c2ccccc21
[1]
  IC50: 28 to 30 nM

## C[C@H](Nc1cc(NCCO)c([N+](=O)[O-])c(Nc2cc(C3CC3)[nH]n2)c1)c1ccc(F)cc1
[6]
  IC50: 1240 nM

## CC(C)c1cc(C(=O)c2cccc(NC(=O)Nc3ccc(OCc4ccccc4)cc3)c2)c2c(N)ncnn12
NTRK1/NTRK2
  IC50: < 1 nM

## C[C@@H]1CCc2ncc(F)cc2[C@H]2CCCN2c2ccn3ncc(c3n2)C(=O)N1 [SELITRECTINIB]
[6]
  IC50: > 1000 nM

## O=C(Nc1cnn2ccc(N3CCC[C@@H]3c3cc(F)ccc3F)nc12)N1CC[C@H](O)C1.O=S(=O)(O)O [LAROTRECTINIB SULFATE]
[6]
  IC50: 2 to 20 nM
[18]
  Vd: 48 L
KM12
  IC50: 1.9 nM
[19]
  Tmax: 1 h
[20]
  CL/F: 98 L/h
[21]
  half-life: 2.9 h
[22]
  bioavailability: 32 to 37%
[23]
  Cmax: 788 ng/mL
[24]
  AUC: 4351 ng·h/mL
